This passage reports IC50 results from patent US7994172B2, “[1H-pyrazolo[3, 4-D]pyrimidin-4-yl]-piperidine or -piperazine compounds as serine-theoronine kinase modulators (P70s6k, Atk1 and Atk2) for the treatment of immunological, inflammatory and proliferative diseases” (Exelixis, Inc., priority 2004, dated 2011).

Assay [1] deals with T1, human Akt1 kinase (kinase domain residues R144-A480, activated with PDK1) (Homo sapiens, UniProt P31749).
T1 construct: made in house
Nature of the assay: Akt1 kinase assay, Luciferase-Coupled Chemiluminescent Kinase assay (LCCA). The conditions noted are these: 1 μM ATP, 1.3 nM Akt1; read-out: Akt-1 inhibition IC50. It counts as biochemical. On the procedure:
(§1) Kinase activity and compound inhibition are investigated using one or more of the three assay formats described below. The ATP concentrations for each assay are selected to be close to the Michaelis-Menten constant (KM) for each individual kinase. Dose-response experiments are performed at 10 different inhibitor concentrations in a 384-well plate format. The data are fitted to four-parameter equation (2) below; where Y is the observed signal, X is the inhibitor concentration, Min is the background signal in the absence of enzyme (0% enzyme activity), Max is the signal in the absence of inhibitor (100% enzyme activity), IC50 is the inhibitor concentration at 50% enzyme inhibition and H represents the empirical Hill's slope to measure the cooperativity. Typically H is close to unity. Y=Min+(Max−Min)/(1+(X/IC50)^H) Equation (2) p70S6 Kinase Assay
Biochemical activity of Akt1 kinase was assessed using a Luciferase-Coupled Chemiluminescent Kinase assay (LCCA) format. Kinase activity was measured as the percent ATP remaining following the kinase reaction. Remaining ATP was detected by luciferase-luciferin-coupled chemiluminescence. Specifically, the reaction was initiated by mixing test compounds, 1 μM ATP, 5 μM crosstide peptide and 1.3 nM Akt1 (baculovirus expressed human Akt1 kinase domain residues R144-A480, activated with PDK1) in a 20 uL assay buffer (20 mM Tris-HCL pH 7.5, 10 mM MgCl2, 0.01% Triton X-100, 1 mM DTT, 3 mM MnCl2). The mixture is incubated at ambient temperature for 3 hours after which 20 μL luciferase-luciferin mix is added and the chemiluminescent signal read using a Wallac Victor2 reader. The luciferase-luciferin mix consists of 50 mM HEPES, pH 7.8, 8.5 μg/mL oxalic acid (pH 7.8), 5 (or 50) mM DTT, 0.4% Triton X-100, 0.25 mg/mL coenzyme A, 63 uM AMP, 28 μg/mL luciferin and 40,000 units/mL luciferase.

The target in assay [2] is T2, human p70S6 kinase (p70S6K, kinase domain residues 1-421, T412E mutation) (Homo sapiens, UniProt P23443, T412E).
T2 construct: human p70S6 kinase domainresidues 1-421, containing a T412E mutation; made in house
T2 sequence (P23443 1-421 T412E): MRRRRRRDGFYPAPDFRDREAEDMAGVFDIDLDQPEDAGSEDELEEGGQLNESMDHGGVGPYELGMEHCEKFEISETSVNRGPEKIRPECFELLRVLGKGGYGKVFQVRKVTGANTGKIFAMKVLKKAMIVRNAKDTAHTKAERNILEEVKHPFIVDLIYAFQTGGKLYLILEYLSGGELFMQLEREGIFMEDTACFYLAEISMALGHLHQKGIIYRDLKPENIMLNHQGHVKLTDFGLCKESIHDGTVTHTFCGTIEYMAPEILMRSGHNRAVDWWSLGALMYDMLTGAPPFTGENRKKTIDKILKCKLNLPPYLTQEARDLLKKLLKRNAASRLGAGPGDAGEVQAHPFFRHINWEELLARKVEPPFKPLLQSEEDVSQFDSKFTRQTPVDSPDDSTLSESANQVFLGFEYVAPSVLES
Briefly: p70S6 kinase assay, Luciferase-Coupled Chemiluminescent Kinase assay (LCCA). The conditions noted are these: 5 μM ATP, 12 nM p70S6K; read-out: p70S6K inhibition IC50. The assay is classed as biochemical. On the procedure: as §1
Biochemical activity of p70S6 kinase was assessed using a Luciferase-Coupled Chemiluminescent Kinase assay (LCCA) format. Kinase activity was measured as the percent ATP remaining following the kinase reaction. Remaining ATP was detected by luciferase-luciferin-coupled chemiluminescence. Specifically, the reaction was initiated by mixing test compounds, 5 μM ATP, 5 μM RRRLSSLRA peptide and 12 nM p70S6K (baculovirus expressed human p70S6 kinase domainresidues 1-421, containing a T412E mutation) in a 20 uL assay buffer (20 mM Tris-HCL pH 7.5, 10 mM MgCl2, 0.02% Triton X-100, 100 mM DTT, 2 mM MnCl2). The mixture is incubated at ambient temperature for 2 hours after which 20 μL luciferase-luciferin mix is added and the chemiluminescent signal read using a Wallac Victor^2 reader. The luciferase-luciferin mix consists of 50 mM HEPES, pH 7.8, 8.5 μg/mL oxalic acid (pH 7.8), 5 (or 50) mM DTT, 0.4% Triton X-100, 0.25 mg/mL coenzyme A, 63 uM AMP, 28 μg/mL luciferin and 40,000 units/mL luciferase.

T1 sequence (P31749 144-480): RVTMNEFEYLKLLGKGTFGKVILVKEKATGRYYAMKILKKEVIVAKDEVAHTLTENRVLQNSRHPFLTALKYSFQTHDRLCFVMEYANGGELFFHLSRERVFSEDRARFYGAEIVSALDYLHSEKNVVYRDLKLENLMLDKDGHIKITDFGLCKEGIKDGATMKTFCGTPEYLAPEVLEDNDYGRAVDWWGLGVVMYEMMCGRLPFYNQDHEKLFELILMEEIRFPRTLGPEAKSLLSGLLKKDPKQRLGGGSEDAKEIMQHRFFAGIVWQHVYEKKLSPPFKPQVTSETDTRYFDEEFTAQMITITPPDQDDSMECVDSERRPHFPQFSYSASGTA

Consider `CCN(CC)CCS(=O)(=O)N(c1ccc(Cl)cc1)C1CCN(c2ncnc3[nH]nc(Br)c23)CC1` [Entry 29, N-[1-(3-bromo-1H-pyrazolo[3,4-d]pyrimidin-4-yl)piperidin-4-yl]-N-(4-chlorophenyl)-2-(diethylamino)ethanesulfonamide], for which the half-inhibitory concentration (IC50) in assay [1] and in assay [2] was less than 50 nM in each case.

On to `C=CCCC(=O)N(c1ccc(Cl)cc1)C1CCN(c2ncnc3[nH]nc(Br)c23)CC1` [Entry 35, N-[1-(3-bromo-1H-pyrazolo[3,4-d]pyrimidin-4-yl)piperidin-4-yl]-N-(4-chlorophenyl)pent-4-enamide], for which the 50% inhibitory concentration (IC50) in assay [1] was 50 to 500 nM; in assay [2], less than 50 nM.

As for `Clc1ccc(CC2CCN(c3ncnc4[nH]nc(Br)c34)CC2)cc1Cl` [Entry 40, 3-bromo-4-{4-[(3,4-dichlorophenyl)methyl]piperidin-1-yl}-1H-pyrazolo[3,4-d]pyrimidine], the IC50 in assay [1] was more than 2000 nM; in assay [2] it was less than 50 nM.

Turning to `COC(=O)c1ccc(CN2CCN(c3ncnc4[nH]nc(Br)c34)CC2)cc1` [Entry 42, methyl 4-{[4-(3-bromo-1H-pyrazolo[3,4-d]pyrimidin-4-yl)piperazin-1-yl]methyl}benzoate], the half-inhibitory concentration (IC50) in assay [1] was more than 2000 nM; in assay [2], less than 50 nM.

As to `CCN(CC)CCCNC(=O)C1(Cc2ccc(Cl)cc2)CCN(c2ncnc3[nH]nc(Br)c23)CC1` [Entry 44, 1-(3-bromo-1H-pyrazolo[3,4-d]pyrimidin-4-yl)-4-[(4-chlorophenyl)methyl]-N-[3-(diethylamino)propyl]piperidine-4-carboxamide], the half-maximal inhibitory concentration (IC50) in assay [1] is 50 to 500 nM; in assay [2], less than 50 nM.

In the case of `CCN(CC)CCCNC(=O)C1(c2ccc(Cl)cc2)CCN(c2ncnc3[nH]nc(Br)c23)CC1` [Entry 49, 1-(3-bromo-1H-pyrazolo[3,4-d]pyrimidin-4-yl)-4-(4-chlorophenyl)-N-[3-(diethylamino)propyl]piperidine-4-carboxamide], the figures for the IC50 in assay [1] and in assay [2] were 500 to 2000 nM and less than 50 nM, respectively.

Take `Clc1ccc(NC2CCN(c3ncnc4[nH]nc(Br)c34)CC2)cc1` [Entry 59, 1-(3-bromo-1H-pyrazolo[3,4-d]pyrimidin-4-yl)-N-(4-chlorophenyl)piperidin-4-amine]: the 50% inhibitory concentration (IC50) in assay [1] was more than 2000 nM; in assay [2], 50 to 500 nM.

Consider `O=[N+]([O-])c1cc(CN2CCN(c3ncnc4[nH]nc(Br)c34)CC2)ccc1Oc1ccc(F)cc1` [Entry 65, 3-bromo-4-[4-({4-[(4-fluorophenyl)oxy]-3-nitrophenyl}methyl)piperazin-1-yl]-1H-pyrazolo[3,4-d]pyrimidine], for which the IC50 in assay [1] was more than 2000 nM; in assay [2], 500 to 2000 nM.

Consider `Clc1cc(CN2CCN(c3ncnc4[nH]nc(Br)c34)CC2)ccc1OCc1ccccc1` [Entry 80, 3-bromo-4-[4-({3-chloro-4-[(phenylmethyl)oxy]phenyl}methyl)piperazin-1-yl]-1H-pyrazolo[3,4-d]pyrimidine], for which the IC50 in assay [1] and in assay [2] was more than 2000 nM each time.

For `O=C(NCCCN1CCOCC1)c1ccc(CN2CCN(c3ncnc4[nH]nc(Br)c34)CC2)cc1` [Entry 81, 4-{[4-(3-bromo-1H-pyrazolo[3,4-d]pyrimidin-4-yl)piperazin-1-yl]methyl}-N-(3-morpholin-4-ylpropyl)benzamide], the half-maximal inhibitory concentration (IC50) in assay [1] and in assay [2] was more than 2000 nM throughout.

`COCCCNC(=O)c1ccc(CN2CCN(c3ncnc4[nH]nc(Br)c34)CC2)cc1` [Entry 82, 4-{[4-(3-bromo-1H-pyrazolo[3,4-d]pyrimidin-4-yl)piperazin-1-yl]methyl}-N-[3-(methyloxy)propyl]benzamide]: the IC50 in assay [1] and in assay [2] was more than 2000 nM throughout.

As for `CN(C)CCOCC1CN(c2ncnc3[nH]nc(Br)c23)CCN1Cc1ccc(Cl)cc1` (centres unmarked) [Entry 83, 2-[({4-(3-bromo-1H-pyrazolo[3,4-d]pyrimidin-4-yl)-1-[(4-chlorophenyl)methyl]piperazin-2-yl}methyl)oxy]-N,N-dimethylethanamine], the IC50 in assay [1] and in assay [2] was more than 2000 nM in each case.

For `O=[N+]([O-])c1cc(CN2CCN(c3ncnc4[nH]nc(Br)c34)CC2)ccc1Oc1ccc(Cl)cc1` [Entry 84, 3-bromo-4-[4-({4-[(4-chlorophenyl)oxy]-3-nitrophenyl}methyl)piperazin-1-yl]-1H-pyrazolo[3,4-d]pyrimidine], the half-inhibitory concentration (IC50) in assay [1] and in assay [2] was more than 2000 nM throughout.

`CN(C)CCO[C@@H](c1ccc(Cl)cc1)C1CCN(c2ncnc3[nH]nc(Br)c23)CC1` [Entry 86, 2-{[(R)-[1-(3-bromo-1H-pyrazolo[3,4-d]pyrimidin-4-yl)piperidin-4-yl](4-chlorophenyl)methyl]oxy}-N,N-dimethylethanamine]: the IC50 in assay [1] and in assay [2] was less than 50 nM in each case.

`CN(C)CCNC(=O)N(c1ccc(Br)c(F)c1)C1CCN(c2ncnc3[nH]nc(Br)c23)CC1` [Entry 87, N-(4-bromo-3-fluorophenyl)-N-[1-(3-bromo-1H-pyrazolo[3,4-d]pyrimidin-4-yl)piperidin-4-yl]-N′-[2-(dimethylamino)ethyl]urea]: the half-maximal inhibitory concentration (IC50) in assay [1] and in assay [2] was less than 50 nM each time.

`CCc1n[nH]c2ncnc(N3CCC([C@@H](OCCN(C)C)c4ccc(Cl)cc4)CC3)c12` [Entry 88, 2-({(R)-(4-chlorophenyl)[1-(3-ethyl-1H-pyrazolo[3,4-d]pyrimidin-4-yl)piperidin-4-yl]methyl}oxy)-N,N-dimethylethanamine]: the IC50 in assay [1] and in assay [2] was less than 50 nM each time.

Turning to `CN(C)CCO[C@H](c1ccc(Cl)cc1)C1CCN(c2ncnc3[nH]nc(Br)c23)CC1` [Entry 89, 2-{[(S)-[1-(3-bromo-1H-pyrazolo[3,4-d]pyrimidin-4-yl)piperidin-4-yl](4-chlorophenyl)methyl]oxy}-N,N-dimethylethanamine], the IC50 in assay [1] and in assay [2] was less than 50 nM in each case.

Take `Clc1ccc([C@H](OCCN2CCCC2)C2CCN(c3ncnc4[nH]nc(Br)c34)CC2)cc1` [Entry 90, 3-bromo-4-(4-{(R)-(4-chlorophenyl)[(2-pyrrolidin-1-ylethyl)oxy]methyl}piperidin-1-yl)-1H-pyrazolo[3,4-d]pyrimidine]: the concentration for half-maximal inhibition (IC50) in assay [1] and in assay [2] was less than 50 nM in each case.

As for `CN(C)CCCC(O)(c1ccc(Cl)cc1)C1CCN(c2ncnc3[nH]nc(Br)c23)CC1` (centres unmarked) [Entry 91, 1-[1-(3-bromo-1H-pyrazolo[3,4-d]pyrimidin-4-yl)piperidin-4-yl]-1-(4-chlorophenyl)-4-(dimethylamino)butan-1-ol], the concentration for half-maximal inhibition (IC50) in assay [1] and in assay [2] was less than 50 nM throughout.

In the case of `CN(C)CCO[C@@H](c1ccc(Cl)c(F)c1)C1CCN(c2ncnc3[nH]nc(Br)c23)CC1` [Entry 92, 2-{[(R)-[1-(3-bromo-1H-pyrazolo[3,4-d]pyrimidin-4-yl)piperidin-4-yl](4-chloro-3-fluorophenyl)methyl]oxy}-N,N-dimethylethanamine], the IC50 in assay [1] and in assay [2] was less than 50 nM throughout.

In the case of `Clc1ccc([C@H](OCCN2CCCCC2)C2CCN(c3ncnc4[nH]nc(Br)c34)CC2)cc1` [Entry 93, 3-bromo-4-(4-{(R)-(4-chlorophenyl)[(2-piperidin-1-ylethyl)oxy]methyl}piperidin-1-yl)-1H-pyrazolo[3,4-d]pyrimidine], the IC50 in assay [1] and in assay [2] was less than 50 nM throughout.

Take `CN(C)CCCC(c1ccc(Cl)cc1)C1CCN(c2ncnc3[nH]nc(Br)c23)CC1` (centres unmarked) [Entry 94, 4-[1-(3-bromo-1H-pyrazolo[3,4-d]pyrimidin-4-yl)piperidin-4-yl]-4-(4-chlorophenyl)-N,N-dimethylbutan-1-amine]: the concentration for half-maximal inhibition (IC50) in assay [1] and in assay [2] was less than 50 nM throughout.

A word on the IC50: it is the midpoint of a concentration-inhibition curve.
